Among the data in paper PMC3433420 (PLoS ONE, 2012) are Kd and Ki values, retold here.

pKd, pKi: −log10 of the molar value. Like-named read-outs stand apart in the source and are kept apart here. Residues, ends and D or L forms follow the SMILES beside them.

Assay [1] addresses T1, PIK3R1-N SH2 domain (Homo sapiens, UniProt P27986).
T1 construct: thioredoxin; made in house; host or cells: E. coli BL21(DE3)pLysS
The experiment in a line: biochemical. Type of assay: binding. To be noted: FP, PIK3R1-N; mean; NA = no interaction detected.

Assay [2] addresses T2, PIK3R3-C SH2 domain (Homo sapiens, UniProt Q92569).
T2 construct: thioredoxin; made in house; host or cells: E. coli BL21(DE3)pLysS
The experiment in a line: biochemical. To be noted: FP, PIK3R3-C; mean; NA = no interaction detected. The format is binding.

For assay [3], the target named is T2, PIK3R3-C SH2 domain. Kind of assay: Surface plasmon resonance (Biacore 3000). Type of assay: binding. To be noted: SPR, NA = no interaction detected. The protocol:
(§1) All SPR experiments were performed using Biacore 3000 (GE HealthCare, Piscataway, NJ) instrumentation. 6X His-tagged SH2 domain proteins were immobilized on a nitriloacetic acid (NTA) sensor chip (GE HealthCare, Piscataway, NJ) charged with Ni^2+ ions. Dye-free ErbB family peptides were applied to the sensor chip in a single flow cell in solution phase (while the other flow cell was used as a reference control) and binding events were measured under equilibrium conditions. FP false positive [drawing 7] (FPR), false discovery [drawing 8] (FDR), and false negative [drawing 9] (FNR) rates were calculated by defining true positives (TP) as interactions detected by both FP and SPR, true negatives (TN) as interactions detected by neither FP nor SPR; false positives as interactions identified by FP but not validated by SPR; and false negatives (FN) as interactions missed by FP but detected by SPR. Additional details for all methods are provided in the Supplementary Methods.
A randomly selected set of 12 recombinant SH2 domain proteins and unlabeled (rhodamine dye free) peptides (9 ErbB, 2 GAB1, 2 KIT, 2 MET) were generated for the surface plasmon resonance (SPR) validation study. The 6X His-tagged SH2 domain proteins used in the assay, PLCG1-C, SHC4, VAV2, TNS3, PIK3R3-C, SYK-C, PIK3R1-N, SUPT6H, CRKL, TEC, SHB, and SHC3 were produced and purified as previously described (see “SH2 and PTB domain proteins” section and Jones et al., 2006). Fresh protein stocks were generated so as to avoid bias incurred from proteins previously used in the FP assays. 13-mer peptides corresponding to ErbB1 pY801, ErbB1 pY900, ErbB1 pY978, ErbB1 pY1069, ErbB2 pY685, ErbB pY803, ErbB3 pY912, ErbB4 pY833, ErbB4 pY906, GAB1 pY183, GAB1 pY472, KIT pY570, KIT pY936, MET pY1093 and MET pY1313, were synthesized successfully for the assay using previously described approaches (see “FP competitor peptide synthesis” section). For SPR detection via the Biacore 3000 (GE HealthCare, Piscataway, NJ), His-tagged SH2 domains were immobilized on Biacore NTA sensor chips (GE HealthCare, Piscataway, NJ) pre-charged with Ni^2+ ions in one flow cell while the second served as a negative control reference cell. Peptides were introduced in solution phase to both cells and relative response units (RUs) were recorded from output sensograms. Nine concentrations of peptide and a buffer control, in duplicate, were used to determine KDs using the equilibrium method (best-fit simultaneous modeling for peptide association and disassociation curves).

Assay [4] has as its target T1, PIK3R1-N SH2 domain. Kind of assay: Surface plasmon resonance (Biacore 3000). The conditions noted are these: SPR, NA = no interaction detected. The format is binding. As for the experimental part:
as §1
(§2) Fresh protein stocks were generated so as to avoid bias incurred from proteins previously used in the FP assays. […]

Assay [5] concerns the target T3, GRB7 SH2 domain (Homo sapiens, UniProt Q14451). The experiment in a line: FP saturation binding assay. The conditions noted are these: read-out: Ki ( exp FP); competing peptide, GRB7; Ki expected from FP; NI = no interaction.
The target of assay [6] is T4, RASA1-N SH2 domain (Homo sapiens, UniProt P20936).
T4 sequence (P20936 181-272 limits assumed): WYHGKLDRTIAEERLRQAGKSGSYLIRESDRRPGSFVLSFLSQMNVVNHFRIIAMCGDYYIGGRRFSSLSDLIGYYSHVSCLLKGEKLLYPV
Kind of assay: FP saturation binding assay.

For assay [7], the target named is T3, GRB7 SH2 domain. Kind of assay: FP competition assay. Type of assay: binding. Also noted: 6X His; thioredoxin; made in house; host or cells: E. coli BL21(DE3)pLysS. The conditions noted are these: labeled peptide ErbB3pY1197, Fig. 3 graph C, read-out: Ki (obs). As for the experimental part:
(§3) Unlabeled phosphopeptides were synthesized with some modifications to the previously described protocol. […] Unlabeled competitor peptides were prepared at 11 serial 1∶3 dilutions in assay buffer; one control with no unlabeled competitor peptides was also included with each experimental set. The fluorescent peptide, protein, and unlabeled peptide mixtures were allowed to incubate for a minimum of 20 minutes in 384-well plates and polarization signals were measured using the Analyst GT multimode reader as previously described above. Inhibition curves were constructed by four-parameter log-logistic regression using the “drc” package in R with the parameters for maximum and minimum fluorescence fixed according to Z’ factor positive and negative control values. IC50 values were estimated from these fits under a one-site competition binding model and Ki calculated according to the equation developed by.

Assay [8] deals with T4, RASA1-N SH2 domain. Kind of assay: FP competition assay. Type of assay: binding. Set-up: 6X His; thioredoxin; made in house; host or cells: E. coli BL21(DE3)pLysS. The conditions noted are these: RASA1N, Fig. 3 graph A, read-out: Ki (obs). As for the experimental part: as §3
The next assay addresses T5, SRC SH2 domain (Homo sapiens, UniProt P12931).
T5 construct: between the c-Src SH2 domain and ErbB1 in our FP assay; 6X His; thioredoxin; made in house; host or cells: E. coli BL21(DE3)pLysS
The experiment in a line: FP competition assay. The conditions noted are these: labeled peptide ErbB3pY1222, Fig. 3 graph B, read-out: Ki (obs). Type of assay: binding. As for the experimental part: as §3

Assay [9] deals with T6, SHC3 SH2 domain (Homo sapiens, UniProt Q92529). Kind of assay: FP saturation binding assay.
For another assay, the target named is T7, TNS3 SH2 domain (Homo sapiens, UniProt Q68CZ2).
T7 sequence (Q68CZ2 1172-1282 limits assumed): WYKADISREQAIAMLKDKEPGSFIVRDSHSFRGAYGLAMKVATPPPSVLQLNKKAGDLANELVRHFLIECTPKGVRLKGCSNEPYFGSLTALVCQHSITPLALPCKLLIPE
The experiment in a line: FP saturation binding assay.

Assay [10] concerns the target T6, SHC3 SH2 domain. The experiment in a line: Surface plasmon resonance (Biacore 3000). The format is binding. Set-up: A randomly selected set of 12 recombinant SH2 domain proteins; thioredoxin; made in house; host or cells: E. coli BL21(DE3)pLysS. To be noted: SPR, NA = no interaction detected. As for the experimental part:
as §1, §2

T6 sequence (Q92529 499-590 limits assumed): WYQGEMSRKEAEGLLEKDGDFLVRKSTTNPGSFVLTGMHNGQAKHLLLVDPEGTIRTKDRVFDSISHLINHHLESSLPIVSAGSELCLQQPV
T1 sequence (P27986 333-428 limits assumed): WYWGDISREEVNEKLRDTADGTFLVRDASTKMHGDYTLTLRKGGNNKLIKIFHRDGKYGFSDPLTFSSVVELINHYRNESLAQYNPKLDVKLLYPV
T3 sequence (Q14451 431-527 limits assumed): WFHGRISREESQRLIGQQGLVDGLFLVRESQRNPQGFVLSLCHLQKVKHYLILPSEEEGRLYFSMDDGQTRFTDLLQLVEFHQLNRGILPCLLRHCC
T5 sequence (P12931 151-248 limits assumed): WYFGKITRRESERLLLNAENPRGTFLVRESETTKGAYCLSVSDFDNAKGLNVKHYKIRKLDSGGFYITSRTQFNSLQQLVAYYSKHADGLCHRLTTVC

Turning to `CC[C@H](C)[C@H](NC(=O)[C@@H](N)CCCCN)C(=O)N[C@@H](CCCNC(=N)N)C(=O)N[C@@H](CCCCN)C(=O)N[C@@H](Cc1ccc(OP(=O)(O)O)cc1)C(=O)N[C@H](C(=O)N[C@@H](CCSC)C(=O)N[C@@H](CCCNC(=N)N)C(=O)N[C@@H](CCCNC(=N)N)C(=O)N[C@@H](CC(C)C)C(=O)N[C@@H](CC(C)C)C(=O)N[C@@H](CCC(N)=O)C(=O)N[C@@H](CC(=O)O)C(=O)O)[C@@H](C)O` [ErbB2 685] (HELM PEPTIDE1{K.I.R.K.[O=C([C@H](Cc1ccc(OP(=O)(O)O)cc1)N[*:1])[*:2]].T.M.R.R.L.L.Q.D}$$$$V2.0), the negative-log Kd (pKd) was 5.60 at PIK3R1-N SH2 domain [1], 5.35 at PIK3R3-C SH2 domain [2], 5.82 at PIK3R3-C SH2 domain [3] and 4.87 on PIK3R1-N SH2 domain [4].
On to `CC(C)C[C@H](NC(=O)[C@H](Cc1ccc(OP(=O)(O)O)cc1)NC(=O)[C@H](CCC(=O)O)NC(=O)[C@@H]1CCCN1C(=O)[C@H](CC(N)=O)NC(=O)[C@@H](N)CCC(=O)O)C(=O)N[C@H](C(=O)N1CCC[C@H]1C(=O)N[C@@H](CCC(N)=O)C(=O)NCC(=O)NCC(=O)N[C@@H](C)C(=O)N[C@@H](CC(=O)O)C(=O)O)[C@@H](C)O` [ErbB2 pY1196], for which the negative-log Ki (pKi) at GRB7 SH2 domain [5] is less than 4.70; at GRB7 SH2 domain [7], 4.96; on RASA1-N SH2 domain [8] (labeled peptide ErbB2pY1196), 5.64; on RASA1-N SH2 domain [8] (labeled peptide ErbB3pY1307), 5.45. The same compound showed a negative-log Kd (pKd) on RASA1-N SH2 domain [6] of 5.73.
For the compound `CSCC[C@H](NC(=O)[C@H](Cc1ccc(O)cc1)NC(=O)[C@H](CCC(=O)O)NC(=O)[C@H](Cc1ccc(OP(=O)(O)O)cc1)NC(=O)CNC(=O)[C@H](CC(C)C)NC(=O)[C@H](CCC(=O)O)NC(=O)[C@@H](N)CCC(=O)O)C(=O)N[C@@H](CC(=O)O)C(=O)N[C@H](C(=O)NCC(=O)N[C@@H](CO)C(=O)N[C@@H](CC(=O)O)C(=O)O)C(C)C` [ErbB3 pY1222] (HELM PEPTIDE1{E.E.L.G.[O=C([C@H](Cc1ccc(OP(=O)(O)O)cc1)N[*:1])[*:2]].E.Y.M.D.V.G.S.D}$$$$V2.0), the pKi at SRC SH2 domain is 5.63.
For `CC[C@H](C)[C@H](NC(=O)[C@@H](NC(=O)[C@@H](NC(=O)CNC(=O)[C@H](Cc1ccc(OP(=O)(O)O)cc1)NC(=O)[C@H](CO)NC(=O)[C@H](Cc1c[nH]c2ccccc12)NC(=O)[C@@H](NC(=O)[C@@H](N)CC(=O)O)C(C)C)C(C)C)[C@@H](C)O)C(=O)N[C@@H](Cc1c[nH]c2ccccc12)C(=O)N[C@@H](CCC(=O)O)C(=O)N[C@@H](CC(C)C)C(=O)N[C@@H](CC(=O)O)C(=O)O` [ErbB4 906] (HELM PEPTIDE1{D.V.W.S.[O=C([C@H](Cc1ccc(OP(=O)(O)O)cc1)N[*:1])[*:2]].G.V.T.I.W.E.L.D}$$$$V2.0), the pKd at PIK3R3-C SH2 domain [2] was 5.74; on PIK3R3-C SH2 domain [3], 6.25; on SHC3 SH2 domain [9] it was 6.27; at TNS3 SH2 domain it was 6.10; at SHC3 SH2 domain [10], 5.17.

As a reminder, the pKd is the negative decadic logarithm of the Kd, by convention in mol/L. In general, pKi refers to the negative decadic logarithm of the Ki, by convention in mol/L.
